Earlier results on one sequence are cited in patent US9320791B2, “Peptides from chaperonin 60.1” (PE[…], priority 2011, dated 2016).

The test system of this data set is recruitment of eosinophils. Particulars: animal model of allergic airway inflammation; disclosed in WO2009/106819.

Turning to “DGSVVVNKVSELPAGHGLNVNTLSYGDLAAD (listed as Mycobacterium tuberculosis) [Peptide 4, peptide derivable from MtCpn60.1 disclosed in WO2009/106819]”, the recruitment of eosinophils result was “significantly reduce”.
